Results: article PMC7182039 (Journal of medicinal chemistry, 2020)

Tests used:
[1] = Kinetic solubility by nephelometry; type: physicochemical; settings: kinetic solubility, 1% DMSO, 30 min; for sol2.0: 0.01 M HCl (approx. pH 2.0); for sol6.5: pH 6.5 phosphate buffer
[2] = In vitro metabolic stability in human liver microsomes; type: in vitro ADME; settings: for h CLint: 37 °C, 0.4 mg/mL protein, NADPH
[3] = In vitro metabolic stability in mouse liver microsomes; type: in vitro ADME; settings: for m CLint: 37 °C, 0.4 mg/mL protein, NADPH

Compound	sol2.0 [1]	sol6.5 [1]	h CLint [2]	m CLint [3]	conversion to 2 in human liver microsomes [2]	conversion to 2 in mouse liver microsomes [3]
O=C(O)c1cccc([C@H]2CC[C@]3(CC2)OOC2(O3)C3CC4CC(C3)CC2C4)c1 (stereo partly drawn) [Compound 4]	<1.6/<1.6 μg/mL	<1.6/<1.6 μg/mL	12 μL/(min mg) protein	30 μL/(min mg) protein		
O=C(O)c1cc([C@H]2CC[C@]3(CC2)OOC2(O3)C3CC4CC(C3)CC2C4)ccc1O (stereo partly drawn) [Compound 5, 5-(Dispiro[adamantane-2,3′ -[1,2,4]trioxolane-5′,1″-cyclohexan]-4″-yl)-2-hydroxybenzoic acid]			108 μL/(min mg) protein	20 μL/(min mg) protein		
O=C(O)COc1ccc([C@H]2CC[C@]3(CC2)OOC2(O3)C3CC4CC(C3)CC2C4)cc1C(=O)O (stereo partly drawn) [Compound 6, cis-Adamantane-2-spiro-3′−8′-[3-carboxy-4-(carboxymethoxy)-phenyl]-1′,2′,4′-trioxaspiro[4.5]decane]			< 7 μL/(min mg) protein	8 μL/(min mg) protein		
O=C(O)COc1c(Cl)cc([C@H]2CC[C@]3(CC2)OOC2(O3)C3CC4CC(C3)CC2C4)cc1Cl (stereo partly drawn) [Compound 8, cis-Adamantane-2-spiro-3′ −8′-[3,5-dichloro-4-(carboxymethoxy)phenyl]-1′,2′,4′-trioxaspiro[4.5]decan]		3.1 to 6.3 µg/mL				
O=C(O)CCCOc1ccc([C@H]2CC[C@]3(CC2)OOC2(O3)C3CC4CC(C3)CC2C4)cc1 (stereo partly drawn) [Compound 9, cis-Adamantane-2-spiro-3′−8′-[4-(carboxypropoxy)-phenyl]-1′,2′,4′-trioxaspiro[4.5]decane]			< 7 μL/(min mg) protein	8 μL/(min mg) protein		
O=C(O)CCCCOc1ccc([C@H]2CC[C@]3(CC2)OOC2(O3)C3CC4CC(C3)CC2C4)cc1 (stereo partly drawn) [Compound 10, cis-Adamantane-2-spiro-3′−8′-[4-(carboxybutoxy)phenyl]-1′,2′,4′-trioxaspiro[4.5]decan]	<1.6/<1.6 μg/mL	<1.6/<1.6 μg/mL	< 7 μL/(min mg) protein	13 μL/(min mg) protein		
CC(C)(Oc1ccc([C@H]2CC[C@]3(CC2)OOC2(O3)C3CC4CC(C3)CC2C4)cc1)C(=O)O (stereo partly drawn) [Compound 11]		3.1 to 6.3 µg/mL	<7/7 μL/(min mg) protein	<7/7 μL/(min mg) protein		
CCOC(=O)COc1ccc([C@H]2CC[C@]3(CC2)OOC2(O3)C3CC4CC(C3)CC2C4)cc1 (stereo partly drawn) [Compound 12]					rapidly converted to 2	rapidly converted to 2
CS(=O)(=O)NC(=O)COc1ccc([C@H]2CC[C@]3(CC2)OOC2(O3)C3CC4CC(C3)CC2C4)cc1 (stereo partly drawn) [Compound 13, cis-Adamantane-2-spiro-3′−8′-[4-[2-[methylsulfonamino]-2-oxoethoxy]phenyl]-1′,2′,4′-trioxaspiro[4.5]decane]		6.3 to 12.5 µg/mL	< 7 μL/(min mg) protein	12 μL/(min mg) protein		
O=C([O-])C1CCN(CCOc2ccc([C@H]3CC[C@]4(CC3)OOC3(O4)C4CC5CC(C4)CC3C5)cc2)CC1.[Na+] (stereo partly drawn) [Compound 15]	3.1 to 6.3 µg/mL	< 1.6 µg/mL	< 7 μL/(min mg) protein	9 μL/(min mg) protein		
CS(=O)(=O)O.O=C(O)C1CN(Cc2ccc([C@H]3CC[C@]4(CC3)OOC3(O4)C4CC5CC(C4)CC3C5)cc2)C1 (stereo partly drawn) [Compound 18, cis-Adamantane-2-spiro-3′−8′-[4-((3-(carbonyi)azetidin-1-yl)-methyi)phenyi]-1′,2′,4′-trioxaspiro[4.5]decane mesyiate]	6.3 to 12.5 µg/mL	< 1.6 µg/mL	7 μL/(min mg) protein	10 μL/(min mg) protein		
O=C(O)COc1ccc([C@H]2CC[C@]3(CC2)OOC2(O3)C3CC4CC2CC(C3)C4(F)F)cc1 (stereo partly drawn) [Compound 19, cis-6,6-Difluoroadamantane-2-spiro-3′−8′-[4-(carboxymethoxy)-phenyl]-1′,2′,4′ -trioxaspiro[4.5]decane]		12.5 to 25 µg/mL	23 μL/(min mg) protein	130 μL/(min mg) protein		
O=C(O)COc1ccc([C@H]2CC[C@]3(CC2)OOC2(O3)C3CC4CC2CC(C3)C4=O)cc1 (stereo partly drawn) [Compound 20, cis-6-Oxoadamantane-2-spiro-3′−8′-[4-(carboxymethoxy)-phenyl]-1′,2′,4′-trioxaspiro[4.5]decane]		50 to 100 µg/mL				
O=C(O)COc1ccc([C@H]2CC[C@]3(CC2)OOC2(O3)C3CC4CC2CC(C3)C4O)cc1 (stereo partly drawn) [Compound 21, cis-6-Hydroxyadamantane-2-spiro-3′−8′-[4-(carboxymethoxy)-phenyl]-1′,2′,4′-trioxaspiro[4.5]decane]		25 to 50 µg/mL	<7/<7 μL/(min mg) protein	<7/<7 μL/(min mg) protein		
CC(=O)NC1C2CC3CC1CC(C2)C31OO[C@]2(CC[C@@H](c3ccc(OCC(=O)O)cc3)CC2)O1 (stereo partly drawn) [Compound 22, cis-6-Acetamidoadamantane-2-spiro-3′−8′-[4-(carboxymethoxy)phenyl]-1′,2′,4′-trioxaspiro[4.5]decane]	3.1 to 6.3 µg/mL	12.5 to 25 µg/mL	10 μL/(min mg) protein	< 7 μL/(min mg) protein		
CS(=O)(=O)O.NC1C2CC3CC1CC(C2)C31OO[C@]2(CC[C@@H](c3ccc(OCC(=O)O)cc3)CC2)O1 (stereo partly drawn) [Compound 23, cis-6-Aminoadamantane-2-spiro-3′−8′-[4-(carboxymethoxy)-phenyl]-1′,2′,4′-trioxaspiro[4.5]decane mesylate]	6.3 to 12.5 µg/mL	< 1.6 µg/mL	13 μL/(min mg) protein	8 μL/(min mg) protein		
CS(=O)(=O)O.O=C(O)COc1ccc([C@H]2CC[C@]3(CC2)OOC2(O3)C3CC4CC2CC(C3)N4)cc1 (stereo partly drawn) [Compound 24, cis-6-Azaadamantane-2-spiro-3′−8 ′-[4-(carboxymethoxy)-phenyl]-1′,2′,4′-trioxaspiro[4.5]decane mesylate]	3.1 to 6.3 µg/mL	< 1.6 µg/mL	35 μL/(min mg) protein	27 μL/(min mg) protein		
CS(=O)(=O)O.CS(=O)(=O)O.O=C(O)CNCc1ccc([C@H]2CC[C@]3(CC2)OOC2(O3)C3CC4CC2CC(C3)N4)cc1 (stereo partly drawn) [Compound 25, cis-6-Azaadamantane-2-spiro-3′−8′-[4-[[(carboxymethyl)-amino]methyl]phenyl]-1′,2′,4′-trioxaspiro[4.5]decane mesylate]	> 100 µg/mL	50 to 100 µg/mL	<7/<7 μL/(min mg) protein	<7/<7 μL/(min mg) protein		
